Experimental data: patent publication US6632668B2, “Monolayer sheet structure of primary hepatocytes obtained using a protein-phosphorylation inhibitor” (Japan as represented by the Secretary of Agency of …, priority 2000, dated 2003)

Tests used:
primary hepatocytes = test: Monolayer formation of primary hepatocytes on collagen-coated plates, phase contrast microscope observation; type: cell-based, rat; conditions: 50 nM staurosporine, 4 h + 20 h standing culture
Protocol: In order to isolate primary hepatocytes, rat livers were used and primary hepatocytes were isolated from the rat livers by ordinary methods, that was, by collagenase perfusion followed method and four subsequent low-speed centrifuge isolation. The hepatocytes were suspended in an animal cell culture medium (Williams' E medium) containing 10 nM Dexamethasone and 10% fetal bovine serum, and seeded at a cell concentration of 10×10^4 cell/cm^2 on 6-well cell culture plastic plates coated with type I collagen. For the samples to be treated, staurosporine was added to the medium to a final concentration of 50 nM. Next, they were subjected to standing culture for 4 hours at 37° C. in a CO2 incubator in the presence of 5% (v/v) CO2, and the medium was replaced with Williams' E medium containing 10 nM insulin, 10 nM dexamethasone and 0.7 μg/ml aprotinin. For the samples to be treated, staurosporine was again added to the medium to a final concentration of 50 nM. Finally, after the standing culture for 20 hours, the condition of the cells was observed through a phase contrast microscope.
The results in FIG. 1 show clearly that in the case of the hepatocytes not treated with staurosporine, cell aggregates are formed, which comprises intermittently linked patch-like discontinuous monolayers of one to tens of cells.

[1] = tested on: primary rat hepatocytes monolayer; test: Dye permeation assay using transwell filters (bromphenol-blue, OD 655 nm); type: cell-based; conditions: staurosporine-treated monolayer on transwell filters
Protocol: In parallel with Example 1 above, primary rat hepatocytes were seeded on transwell filters (3-micron pore polytetrafluoroethylene coated with type I collagen) suitable to 24-well cell culture plates, and differences in the tightness of the cell monolayer structure produced by staurosporine treatment were measured by a dye permeation assay.
In the dye permeation assay using transwell filters shown in A of FIG. 2, primary hepatocytes were seeded on transwell filters installed in wells on 24-well cell culture plates, and after the monolayer thereof was formed, 20 μl of dye (0.25% bromphenol-blue dye) was added to the upper liquid layer (medium) on the filter. 50 μl samples were then taken with the passage of time from the lower liquid layer (medium) on the filter at a constant temperature of 37° C., and absorbancy thereof (OD 655 nm) was measured.
In the results of B of FIG. 2, courses with the passage of time of dye permeation through hepatocytes layers formed by conventional methods on transwell filters are indicated by the white circles ◯, while courses of dye permeation through hepatocytes layers formed by the methods of this invention are indicated by black circles ●. […]

CNC1CC2OC(C)(C1OC)n1c3ccccc3c3c4c(c5c6ccccc6n2c5c31)C(=O)NC4 (stereo not drawn) [staurosporine, [9S-(9a,10b,11b,13a)]-9,13-epoxy-2,3,10,11,12,13-hexahydro-10-methoxy-9-methyl-11-(methylamino)-1H,9H-diindolo[1,2,3-gh:3′,2′,1′-1m]pyrrolo[3,4-j][1,7]benzodiazonin-1-one]
cell aggregates formed (monolayer structure) (primary hepatocytes; phase contrast microscope x200): a confluent continuous monolayer sheet of closely adjoining cells
adhesion (attachment) and extension (spreading) of hepatocytes on culture substrate (primary hepatocytes; type I collagen coated plates, versus untreated hepatocytes): improved
permeation of dye through hepatocytes monolayer ([1]; 0.25% bromphenol-blue, 37° C., versus untreated cell layers): much less permeation of dye than that of the untreated cell layers
tightness between cells ([1]; concluded from dye permeation): greatly enhanced
